# From publication PMC7687371, “Quantitative in Vitro to in Vivo Extrapolation (QIVIVE) for Predicting Reduced Anogenital Distance Produced by Anti-Androgenic Pesticides in a Rodent Model for Male Reproductive Disorders” (Environmental Health Perspectives, 2020)
# Like-named read-outs stand apart in the source and are kept apart here. Marks after values point to notes of the source that are not given here.
# Columns and labels:
# Sprague-Dawley rats [1] = conditions: male, rat, in vivo
# Wistar rats [2] = conditions: rat, in vivo
# Sprague-Dawley rats [3] = assay: In vivo Study 4 (dimethomorph follow-up), reproductive/developmental toxicity, AGD
# NCI-H295R cells = assay: Cell viability (MTT) in the H295R assay; type: cell-based, human; conditions: human, 48 h
# Description: To capture effects on steroid hormone synthesis (testosterone and androstendione), we tested all 12 pesticides in the H295R assay with the human adrenocortical carcinoma cell line NCI-H295R (American Type Culture Collection no. CRL-2,128, LGC Standards), as previously described ([Hecker et al. 2011]; [Rosenmai et al. 2013]). In brief, cells were cultured in DMEM/F-12 +glutamine medium with HEPES buffer (Invitrogen) containing 1% insulin-transferrin-sodium selenite plus Premix (VWR) and 2.5% Nu-Serum (BD Bioscience) at 37°C in a 5% CO2 atmosphere. The day before exposure, cells were seeded 300,000 per well in clear 24-well plates (VWR Corning). Cells were exposed for 48 h to control (Forskolin: 1μM , 10μM (Sigma-Aldrich); and Prochloraz: 0.3μM , 3μM (VWR-Bie and Berntsen) or test compounds. The vehicle (DMSO) concentration was kept constant in all wells (0.1%). After 48 h, the exposure culture medium was removed and stored at –80°C until the levels of 10 steroid hormones (testosterone, androstenedione, aldosterone, corticosterone, cortisol, dehydroepiandrosterone, 17α-hydroxyprogesterone , progesterone, estrone, and 17β-estradiol ) were quantified using the high-performance liquid chromatography–tandem mass spectrometry method described elsewhere ([Mortensen and Pedersen 2007]). Minor modifications were made to accommodate a smaller sample size and to include more hormones. […]
# Wistar rats [4] = conditions: rat, in vivo; cited from earlier work
# Wistar rats [5] = conditions: male, rat, in vivo, 40 mg/kg/day
# Description: In total, four in vivo exposure studies were conducted with pesticide exposures to pregnant rats during gestation and lactation to the selected compound (Table 2). […] For one selected dose of each compound, the internal body concentrations in dams and fetuses were determined by cesarean section at GD21. Due to the study outcomes from the third study, we conducted a fourth follow-up study on dimethomorph (Study 4).
# Pup weights and AGD were measured after birth at PD1 using a stereomicroscope with a micrometer eyepiece and were determined as the distance between the genital papilla and the anus. To discriminate between an anti-androgenic effect and stunted growth, the AGD index (AGDI) was calculated by dividing AGD by the cube root of the BW (as described by [Hass et al. 2007]). The estimation of AGDI effect doses by regression modeling required a standardized AGDI scale. Therefore, we normalized the AGDI values in relation to the dynamic range spanned by the mean AGDI of the male and the female controls as (38) normalized AGDI=mean(AGDI of male controls)−AGDI(exposed animal)/mean(AGDI of male controls)−mean(AGDI of female controls).
compound,measurement,setting,value
"COc1ccc(C(=CC(=O)N2CCOCC2)c2ccc(Cl)cc2)cc1OC [Dimethomorph, dimethomorph]",AGDI mean,Sprague-Dawley rats [1]; 20 mg/kg,1.95
same,AGDI mean,Sprague-Dawley rats [1]; 60 mg/kg,1.88
same,AGDI mean,Sprague-Dawley rats [1]; 180 mg/kg,1.91
same,Shortening of AGDI compared with male controls (normalized AGDI scale),"Wistar rats [2]; male, Wistar (HanTac:WH)",around 10%
same,AGDI mean,"Wistar rats [2]; male, Wistar, 20 mg/kg",2.01
same,AGDI reduction (%),"Wistar rats [2]; male, Wistar, 20 mg/kg/day",13%
same,AGDI mean,"Wistar rats [2]; male, Wistar, 60 mg/kg",2.16
same,"Nipple retention at PD14, statistics in words",Wistar rats [2],no statistically significant effects on nipple retention
same,% perinatal loss,Sprague-Dawley rats [3]; 20 mg/kg/bw,3.5 ± 6.3%
same,% postimplantation loss,Sprague-Dawley rats [3]; 20 mg/kg/bw,2.6 ± 4.9%
same,% postnatal deaths,Sprague-Dawley rats [3]; 20 mg/kg/bw,1.6 ± 3.7%
same,AGD females (mm),Sprague-Dawley rats [3]; 20 mg/kg/bw,2.0 ± 0.1 mm
same,AGD females (units),Sprague-Dawley rats [3]; 20 mg/kg/bw,12.4 ± 0.8 units
same,AGD index females,Sprague-Dawley rats [3]; 20 mg/kg/bw,1.1 ± 0.1
same,AGD index males,Sprague-Dawley rats [3]; 20 mg/kg/bw,1.94 ± 0.1
same,AGD males (mm),Sprague-Dawley rats [3]; 20 mg/kg/bw,3.74 ± 0.2 mm
same,% perinatal loss,Sprague-Dawley rats [3]; 60 mg/kg/bw,5.7 ± 6.0%
same,% postimplantation loss,Sprague-Dawley rats [3]; 60 mg/kg/bw,4.3 ± 5.2%
same,% postnatal deaths,Sprague-Dawley rats [3]; 60 mg/kg/bw,1.4 ± 3.1%
same,AGD females (mm),Sprague-Dawley rats [3]; 60 mg/kg/bw,1.9 ± 0.1 mm
same,AGD females (units),Sprague-Dawley rats [3]; 60 mg/kg/bw,11.8 ± 0.6 units
same,AGD index females,Sprague-Dawley rats [3]; 60 mg/kg/bw,1.0 ± 0.0
same,AGD index males,Sprague-Dawley rats [3]; 60 mg/kg/bw,1.87 ± 0.1
same,AGD males (mm),Sprague-Dawley rats [3]; 60 mg/kg/bw,3.51 ± 0.2 mm
same,Maternal toxicity,"Sprague-Dawley rats [3]; 180 mg/kg per day, increased postimplantation and perinatal loss, higher postnatal death rate",indications for a mild maternal toxicity
same,% perinatal loss,Sprague-Dawley rats [3]; 180 mg/kg/bw,13.3 ± 11.8%
same,% postimplantation loss,Sprague-Dawley rats [3]; 180 mg/kg/bw,10.1 ± 12.6%
same,% postnatal deaths,Sprague-Dawley rats [3]; 180 mg/kg/bw,3.2 ± 7.2%
same,AGD females (mm),Sprague-Dawley rats [3]; 180 mg/kg/bw,2.0 ± 0.2 mm
same,AGD females (units),Sprague-Dawley rats [3]; 180 mg/kg/bw,12.1 ± 0.9 units
same,AGD index females,Sprague-Dawley rats [3]; 180 mg/kg/bw,1.1 ± 0.0
same,AGD index males,Sprague-Dawley rats [3]; 180 mg/kg/bw,1.90 ± 0.11
same,AGD males (mm),Sprague-Dawley rats [3]; 180 mg/kg/bw,3.57 ± 0.2 mm
"N#Cc1c[nH]cc1-c1cccc2c1OC(F)(F)O2 [Fludioxonil, fludioxonil]","Cytotoxicity in H295R assay, concentrations",NCI-H295R cells,> 12.5 µM
"CC12CC1(C)C(=O)N(c1cc(Cl)cc(Cl)c1)C2=O (stereo not drawn) [Procymidone, procymidone, reference compound]",AGDI ED50,Wistar rats [4],69.4 mg/kg BW
same,AGDI reduction (%),Wistar rats [5],34^d %
